In test [1] the target is T1, PARP-1 triple mutant E763/D766/D770A (Homo sapiens, UniProt P09874, D766A/D770A/E763A).
T1 construct: Full-length PARP-1 WT (residues 1–1014) was cloned in pET28 vector and site-directed mutagenesis was performed; made in house; host or cells: E. coli
Description: DSF, full-length PARP-1 E763/D766/D770A. Format: binding. The conditions noted are these: BAD 1250 μM. As for the experimental part: (§1) DSF experiments were performed as described, [13] using 5 µM protein, 2.5 µM DNA when indicated and various concentrations of compound (BAD, carba-NAD^+, benzamide, and ADP-ribose) as indicated in Fig. 1 and Fig. 3. Experiments were performed on a Roche LightCycler 480 RT-PCR. Reactions including DNA were performed with a 26- or 28-base pair (bp) unphosphorylated oligonucleotide for PARP-1, a 28-bp 5´-phosphorylated (5´P) oligonucleotide for PARP-2, and a 47-bp oligonucleotide including a central 5´P nick for PARP-3^13 in the following buffer: 25 mM Hepes pH 8.0, 150 mM NaCl, 1 mM EDTA, and 0.1 mM TCEP. Reactions with PARP-3 were conducted at lower ionic strength to allow binding to DNA as described (25 mM Hepes pH 8.0, 50 mM NaCl, 1 mM EDTA and 0.1 mM TCEP)[13]. ΔTM values were calculated by subtracting the TM determined for the protein in the absence of compound from the TM determined in the presence of compound. Experiments were performed in triplicate and a Boltzmann sigmoid was fit to the data to determine the TM values (KaleidaGraph).

For a further test, the target named is T2, PARP-1 W246A (Homo sapiens, UniProt P09874, W246A).
T2 construct: Full-length PARP-1 WT (residues 1–1014) was cloned in pET28 vector and site-directed mutagenesis was performed; made in house; host or cells: E. coli
T2 sequence (P09874 whole entry W246A, the tested form may be a part): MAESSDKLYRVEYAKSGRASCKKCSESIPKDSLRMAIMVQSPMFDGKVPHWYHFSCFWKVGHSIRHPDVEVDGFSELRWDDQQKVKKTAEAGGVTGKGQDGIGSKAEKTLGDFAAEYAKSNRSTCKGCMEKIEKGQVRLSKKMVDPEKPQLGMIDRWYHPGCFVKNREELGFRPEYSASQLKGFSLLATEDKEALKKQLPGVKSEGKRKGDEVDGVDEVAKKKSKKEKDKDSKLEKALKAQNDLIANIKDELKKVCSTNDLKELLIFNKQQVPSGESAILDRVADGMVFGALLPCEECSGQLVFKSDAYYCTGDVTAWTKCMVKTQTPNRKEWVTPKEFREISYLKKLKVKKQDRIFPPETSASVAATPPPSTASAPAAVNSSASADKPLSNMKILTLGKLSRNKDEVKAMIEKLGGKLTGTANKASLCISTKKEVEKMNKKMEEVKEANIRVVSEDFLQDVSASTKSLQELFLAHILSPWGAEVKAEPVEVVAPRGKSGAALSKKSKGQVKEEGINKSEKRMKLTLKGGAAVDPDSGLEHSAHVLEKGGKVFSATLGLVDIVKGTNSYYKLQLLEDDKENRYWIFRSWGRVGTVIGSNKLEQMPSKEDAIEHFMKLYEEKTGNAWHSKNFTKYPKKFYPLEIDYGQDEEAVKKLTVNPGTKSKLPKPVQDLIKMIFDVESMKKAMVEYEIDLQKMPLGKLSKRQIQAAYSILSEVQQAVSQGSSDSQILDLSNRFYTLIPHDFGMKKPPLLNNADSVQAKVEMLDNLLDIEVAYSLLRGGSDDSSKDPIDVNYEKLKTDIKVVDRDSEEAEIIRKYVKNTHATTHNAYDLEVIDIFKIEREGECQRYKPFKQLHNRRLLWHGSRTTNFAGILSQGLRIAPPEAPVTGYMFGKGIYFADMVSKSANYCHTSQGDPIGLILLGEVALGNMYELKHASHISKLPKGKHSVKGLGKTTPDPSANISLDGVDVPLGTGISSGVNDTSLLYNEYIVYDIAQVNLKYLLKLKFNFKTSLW
Description: DSF, full-length PARP-1 W246A with or without DNA. Type of test: binding. The conditions noted are these: for TM: Figure 3b, BAD 1250 μM, in °C (unit assumed). On the procedure:
as §1
In general terms: DSF heats the sample and reads unfolding from a dye or from intrinsic fluorescence.

In another test the target is T3, PARP-1 (Homo sapiens, UniProt P09874).
T3 construct: Full-length PARP-1 WT (residues 1–1014) was cloned in pET28 vector; made in house; host or cells: E. coli
T3 sequence (P09874 whole entry, the tested form may be a part): as the sequence (P09874 whole entry W246A, the tested form may be a part) above, with A246W counted along it
Description: SDS-PAGE PARP-1 activity assay (DNA-dependent automodification). Format: biochemical. The conditions noted are these: 1 μM DNA, 1 μM protein, 50 μM NAD+; concentration series. On the procedure: The SDS-PAGE activity assay was performed as described[28] using 1 µM protein, 1 μM DNA (18 bp oligonucleotide), 50 µM NAD^+, and various concentrations of BAD and carba-NAD^+ as indicated. Reactions were incubated for 5 min before quenching with SDS-PAGE loading buffer.

Another test concerns the target T4, PARP-1 K633A (Homo sapiens, UniProt P09874, K633A).
T4 construct: Full-length PARP-1 WT (residues 1–1014) was cloned in pET28 vector and site-directed mutagenesis was performed; made in house; host or cells: E. coli
Description: DSF, full-length PARP-1 K633A with or without DNA. Format: binding. The conditions noted are these: for TM: Figure 3b, BAD 1250 μM, in °C (unit assumed). As for the experimental part:
as §1

The next test concerns PARP-1 ΔHD. Description: Fluorescence polarization DNA competition assay, PARP-1 ΔHD. Format: binding, human. The conditions noted are these: 40 nM PARP-1 ΔHD, 20 nM labeled DNA, BAD 500 μM. On the procedure:
For the DNA competition assay, 40 nM PARP-1 WT, or PARP-1 ΔHD, was incubated with 20 nM of dumbbell DNA with a central nick carrying an internal fluorescent FAM group (5′-GCT GAG C/FAMT/T CTGGTGAAGCTCAGCTCGCGGCAGCTGGTGCTGCCGCGA-3′) for 30 min at RT in 12 mM Hepes pH 8.0, 60 mM KCl, 8 mM MgCl2, 4% glycerol, 5.7 mM beta-mercaptoethanol, 0.05 mg per ml bovine serm albumin with or without BAD or benzamide (500 μM). A competitor unlabeled DNA of the same sequence was added at 100 nM and FP was measured over time on a VictorV plate reader (Perkin Elmer). For the DNA affinity measurement assay, increasing concentrations of PARP-1 WT were incubated for 30 min at RT with 5 nM of dumbbell DNA probe carrying a nick (described above) in the absence or presence of BAD or benzamide (100 μM) in the following buffer: 12 mM Hepes pH 8.0, 250 mM NaCl, 4% glycerol, 5.7 mM beta-mercaptoethanol, 0.05 mg per ml bovine serum albumin.

In another test the target is T5, full-length PARP-1 WT (Homo sapiens, UniProt P09874).
T5 construct: Full-length PARP-1 WT (residues 1–1014) was cloned in pET28 vector; made in house; host or cells: E. coli
T5 sequence (P09874 whole entry, the tested form may be a part): as the sequence (P09874 whole entry W246A, the tested form may be a part) above, with A246W counted along it
Description: DSF, full-length PARP-1 WT with or without DNA. The conditions noted are these: BAD 1250 μM; for TM: in °C (unit assumed). Type of test: binding. On the procedure: as §1

For test [2], the target named is T6, full-length PARP-1 D766/D770A (Homo sapiens, UniProt P09874, D766A/D770A).
T6 construct: Full-length PARP-1 WT (residues 1–1014) was cloned in pET28 vector and site-directed mutagenesis was performed; made in house; host or cells: E. coli
T6 sequence (P09874 whole entry D766A/D770A, the tested form may be a part): as the sequence (P09874 whole entry W246A, the tested form may be a part) above, with A246W, D766A, D770A counted along it
Kind of test: ITC, full-length PARP-1 D766/D770A. Type of test: binding. The conditions noted are these: for n (stoichiometry): FL D766/D770A; for KD / Kd: FL D766/D770A 40 μM, without DNA, compound 525 μM titrated, 25°C. As for the experimental part:
ITC experiments were performed using a MicroCal iTC200 calorimeter (GE Healthcare). BAD or benzamide at 525 μM was titrated into PARP-1 protein (50 μM for CAT WT and CAT ΔHD, 40 μM for full-length PARP-1 WT and mutants) or PARP-1 protein with DNA (20–40 μM) at 25°C. Prior to the experiment, proteins and DNA were dialyzed in 25 mM Hepes pH 8.0, 150 mM NaCl, 1 mM EDTA, and 0.1 mM TCEP. BAD and benzamide were diluted in the dialysis buffer. PARP-1/DNA complexes were assembled and incubated at RT for 30 min prior to performing the experiment. Experiments were typically designed as follows: a first injection of 0.2 μL was followed by 16 injections of 2.5 μL with a spacing of 100 s between injections. Excess heat upon each injection was integrated using an automatically adjusted base line and derived values corrected by heat of dilution. Data analysis and curve fitting were conducted using Origin 7 software. The ITC experiment for each sample was performed either two (PARP-1 WT with benzamide, PARP-1 E763/D766/D770A with benzamide, PARP-1 D766/D770A with BAD) or three times (the remaining eight samples). Table 2 lists the average KD value and stoichiometry (n) for the replicates, and the reported errors are the calculated standard deviations (representing the range of values for experiments repeated two times). We anticipate that the sub-stoichiometric n values for CAT constructs results from either the active fraction being < 100%, or the protein concentration determination being not entirely accurate. The analysis of full-length PARP-1 yielded n values around the expected value of 1.
For orientation: In ITC the heat of successive injections is recorded.

The target of the next test is T7, PARP-1 D45A (Homo sapiens, UniProt P09874, D45A).
T7 construct: Full-length PARP-1 WT (residues 1–1014) was cloned in pET28 vector and site-directed mutagenesis was performed; made in house; host or cells: E. coli
T7 sequence (P09874 whole entry D45A, the tested form may be a part): as the sequence (P09874 whole entry W246A, the tested form may be a part) above, with D45A, A246W counted along it
Description: DSF, full-length PARP-1 D45A with or without DNA. Particulars: for TM: Figure 3b, BAD 1250 μM, in °C (unit assumed). Type of test: binding. On the procedure: as §1

Data on 2 compounds can be found in PMC5829251, “NAD^+ analog reveals PARP-1 substrate-blocking mechanism and allosteric communication from catalytic center to DNA-binding domains” (Nature Communications, 2018).

What is called Kd is the equilibrium constant for the complex coming apart. A higher Kd goes with a looser complex.

T4 sequence (P09874 whole entry K633A, the tested form may be a part): as the sequence (P09874 whole entry W246A, the tested form may be a part) above, with A246W, K633A counted along it
T1 sequence (P09874 whole entry E763A/D766A/D770A, the tested form may be a part): as the sequence (P09874 whole entry W246A, the tested form may be a part) above, with A246W, E763A, D766A, D770A counted along it

Take `NC(=O)c1cccc(C2OC(COP(=O)(O)OP(=O)(O)OCC3OC(n4cnc5c(N)ncnc54)C(O)C3O)C(O)C2O)c1` (centres unmarked) [BAD, benzamide adenine dinucleotide]: the TM in test [1] (Figure 3a, no DNA, TM without BAD 45.74, in °C (unit assumed)) stood at 50.13; on PARP-1 W246A (W246A with DNA (2.5 μM), TM without BAD 47.45), 47.41; on PARP-1 W246A (W246A, no DNA, TM without BAD 47.24), 47.23; on PARP-1 K633A (K633A with DNA (2.5 μM), TM without BAD 44.76), 44.86; at PARP-1 K633A (K633A, no DNA, TM without BAD 45.50) it was 45.32; at full-length PARP-1 WT (Figure 3a, WT with DNA (2.5 μM, 26-bp duplex), TM without BAD 44.35), 47.65. The TM at full-length PARP-1 WT (Figure 3a, WT, no DNA, TM without BAD 48.17) is listed as 48.19; on full-length PARP-1 WT (Figure 3b, WT with DNA (2.5 μM, 26-bp duplex), TM without BAD 42.85), 45.99; on full-length PARP-1 WT (Figure 3b, WT, no DNA, TM without BAD 47.41), 47.09; at full-length PARP-1 WT (Figure 3c, PARP-1, no DNA, TM without BAD 47.93), 48.15; at full-length PARP-1 WT (Figure 3c, PARP-1 with DNA (2.5 μM, 28-bp duplex), TM without BAD 44.45) it was 48.03; at PARP-1 D45A (D45A with DNA (2.5 μM), TM without BAD 46.77) it was 46.61. At PARP-1 D45A (D45A, no DNA, TM without BAD 46.20), this compound showed a TM of 46.68. Besides, the “TM change in the presence of BAD” value in test [1] (did not require the presence of DNA) is “increase in TM”. Besides, the “TM shift in the presence of BAD and DNA” value on PARP-1 W246A (W246A (Zn1–Zn3 interface mutation), relative to WT) is “substantial reduction in TM shift”; at PARP-1 K633A (K633A (Zn3–WGR–HD interface mutation), relative to WT) it was “substantial reduction in TM shift”; at PARP-1 D45A (D45A (Zn1–WGR interface mutation), relative to WT), “substantial reduction in TM shift”. In addition, at PARP-1, the “concentration at which inhibition of DNA-dependent PARP-1 automodification activity starts” value turned out to be 50 µM. Moreover, the “release of full-length PARP-1 ΔHD from the labeled DNA” value in the test with PARP-1 ΔHD is “did not prevent the rapid release”. On full-length PARP-1 WT (with or without DNA (2.5 μM)), the “increase in the TM of full-length PARP-1 owing to BAD” value is given as “observed only with DNA present”. In addition, in test [2], the “n (stoichiometry)” value is listed as 0.96 + /− 0.10. For the same compound, the KD result in test [2] is “showed evidence of binding”. In test [2], this compound yielded a Kd of 2490 nM.

On to `NC(=O)c1ccccc1` [benzamide], for which, in test [2], the “n (stoichiometry)” value is recorded as 0.81 + /− 0.14, the KD entry is listed as “also bound to benzamide similarly” and the equilibrium dissociation constant (Kd) was 2810 nM.
